Data on seven molecules can be found in ChEMBL document CHEMBL1201862, “PubChem BioAssay data set” (2004).

The structures appear in SMILES notation. Active and inactive are the calls of the source.

The target of one experiment is T1, Cytochrome P450 1A2 (Homo sapiens, UniProt P05177).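 Note: PubChem cytochrome P450 panel assay, CYP1A2 panel member.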
T1 sequence (P05177 whole entry): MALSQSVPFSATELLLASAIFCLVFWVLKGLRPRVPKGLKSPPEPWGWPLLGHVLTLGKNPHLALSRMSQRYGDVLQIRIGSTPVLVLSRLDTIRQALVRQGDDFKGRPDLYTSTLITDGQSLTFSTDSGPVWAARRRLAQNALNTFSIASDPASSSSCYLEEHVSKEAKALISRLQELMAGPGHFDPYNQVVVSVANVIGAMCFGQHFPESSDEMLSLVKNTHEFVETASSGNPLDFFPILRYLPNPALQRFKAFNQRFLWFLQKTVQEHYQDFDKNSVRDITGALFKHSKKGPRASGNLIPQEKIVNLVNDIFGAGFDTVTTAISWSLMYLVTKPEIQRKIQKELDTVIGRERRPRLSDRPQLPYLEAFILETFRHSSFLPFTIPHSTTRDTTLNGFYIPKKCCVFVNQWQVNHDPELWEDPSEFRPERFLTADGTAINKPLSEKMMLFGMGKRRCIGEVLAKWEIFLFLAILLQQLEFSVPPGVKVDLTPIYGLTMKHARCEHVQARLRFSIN

The target in the next experiment is Cytochrome P450 2C9 (Homo sapiens, UniProt P11712).
Sequence of Cytochrome P450 2C9 (P11712 whole entry): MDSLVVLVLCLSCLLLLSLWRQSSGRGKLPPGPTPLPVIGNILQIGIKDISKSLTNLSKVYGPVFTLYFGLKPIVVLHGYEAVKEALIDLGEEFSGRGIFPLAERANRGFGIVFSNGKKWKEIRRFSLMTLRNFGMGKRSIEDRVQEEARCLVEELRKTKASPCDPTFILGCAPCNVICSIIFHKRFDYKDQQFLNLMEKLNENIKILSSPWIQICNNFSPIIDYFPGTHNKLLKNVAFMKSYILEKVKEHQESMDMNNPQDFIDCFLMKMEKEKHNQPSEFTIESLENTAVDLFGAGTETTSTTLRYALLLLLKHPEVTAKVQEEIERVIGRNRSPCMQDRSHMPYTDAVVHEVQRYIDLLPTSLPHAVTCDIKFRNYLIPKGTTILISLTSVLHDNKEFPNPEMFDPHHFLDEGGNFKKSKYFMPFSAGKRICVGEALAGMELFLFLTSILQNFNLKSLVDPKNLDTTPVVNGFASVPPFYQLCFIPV
For experiment [1], the target named is Beta-2 adrenergic receptor (Homo sapiens, UniProt P07550). As to the kind of experiment: ADRB2 activation measured by internalization – cell-based, FAP fluorogen, flow cytometry, cherry pick 1, dose response (AID 588763). The format is functional.
Sequence of Beta-2 adrenergic receptor (P07550 whole entry): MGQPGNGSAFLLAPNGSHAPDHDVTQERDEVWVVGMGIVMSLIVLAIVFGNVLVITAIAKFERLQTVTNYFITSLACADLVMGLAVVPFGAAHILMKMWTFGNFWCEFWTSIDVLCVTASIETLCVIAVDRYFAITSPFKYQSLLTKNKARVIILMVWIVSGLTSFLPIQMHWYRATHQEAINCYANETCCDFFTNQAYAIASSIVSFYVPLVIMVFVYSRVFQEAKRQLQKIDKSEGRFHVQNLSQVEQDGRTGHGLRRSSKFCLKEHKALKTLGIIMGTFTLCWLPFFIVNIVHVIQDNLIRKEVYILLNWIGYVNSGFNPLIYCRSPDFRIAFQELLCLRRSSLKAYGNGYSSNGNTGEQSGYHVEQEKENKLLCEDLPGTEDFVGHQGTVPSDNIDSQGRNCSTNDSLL
Experiment [2] deals with T2, Sentrin-specific protease 6 (Homo sapiens, UniProt Q9GZR1).
T2 sequence (Q9GZR1 whole entry): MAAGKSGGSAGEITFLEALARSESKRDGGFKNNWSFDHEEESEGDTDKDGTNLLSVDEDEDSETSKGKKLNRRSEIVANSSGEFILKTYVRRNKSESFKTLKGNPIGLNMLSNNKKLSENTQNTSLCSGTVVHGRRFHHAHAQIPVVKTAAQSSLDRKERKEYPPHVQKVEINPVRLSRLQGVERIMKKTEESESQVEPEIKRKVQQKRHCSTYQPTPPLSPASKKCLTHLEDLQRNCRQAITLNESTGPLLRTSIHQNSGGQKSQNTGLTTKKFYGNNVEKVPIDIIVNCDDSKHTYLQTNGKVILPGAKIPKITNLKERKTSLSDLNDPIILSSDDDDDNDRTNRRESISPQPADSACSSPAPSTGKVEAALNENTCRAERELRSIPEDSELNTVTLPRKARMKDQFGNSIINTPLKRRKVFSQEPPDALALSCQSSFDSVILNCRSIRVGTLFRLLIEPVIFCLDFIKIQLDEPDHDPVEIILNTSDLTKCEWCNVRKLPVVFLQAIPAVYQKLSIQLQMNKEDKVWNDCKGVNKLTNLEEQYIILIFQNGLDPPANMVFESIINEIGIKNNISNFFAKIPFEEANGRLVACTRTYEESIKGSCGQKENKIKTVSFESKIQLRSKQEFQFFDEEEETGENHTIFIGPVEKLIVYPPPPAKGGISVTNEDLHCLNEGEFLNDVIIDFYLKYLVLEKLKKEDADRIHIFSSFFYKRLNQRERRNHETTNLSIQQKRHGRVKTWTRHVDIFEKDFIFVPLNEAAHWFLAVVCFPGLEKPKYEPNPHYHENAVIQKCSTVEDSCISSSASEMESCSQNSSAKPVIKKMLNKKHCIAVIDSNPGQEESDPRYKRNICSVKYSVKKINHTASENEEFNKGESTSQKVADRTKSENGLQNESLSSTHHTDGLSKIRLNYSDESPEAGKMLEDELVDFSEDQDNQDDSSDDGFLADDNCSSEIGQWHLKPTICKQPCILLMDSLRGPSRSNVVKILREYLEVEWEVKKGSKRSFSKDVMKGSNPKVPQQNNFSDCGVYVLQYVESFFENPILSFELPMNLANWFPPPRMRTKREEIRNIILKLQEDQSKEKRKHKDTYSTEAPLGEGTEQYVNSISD
As to the kind of experiment: SAR Analysis of small molecule inhibitors of Sentrin-specific protease 6 (SENP6) using a Luminescent assay. [Related pubchem assays (depositor defined):AID2582, AID2599]. The format is functional.

The next experiment has as its target T3, Caspase-3 (Homo sapiens, UniProt P42574).
T3 sequence (P42574 whole entry): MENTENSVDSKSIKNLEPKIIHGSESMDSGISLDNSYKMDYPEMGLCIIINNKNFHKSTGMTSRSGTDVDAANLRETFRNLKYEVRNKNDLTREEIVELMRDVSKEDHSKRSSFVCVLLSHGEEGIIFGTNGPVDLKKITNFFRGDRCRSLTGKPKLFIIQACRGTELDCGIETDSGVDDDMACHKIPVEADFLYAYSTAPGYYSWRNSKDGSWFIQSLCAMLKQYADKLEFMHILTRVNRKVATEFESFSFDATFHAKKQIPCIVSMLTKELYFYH
Nature of the experiment: SAR Analysis of small molecule inhibitors of Sentrin-specific proteases (SENPs) using a Caspase-3 Selectivity assay. [Related pubchem assays (depositor defined):AID2540, AID2599, AID434973, AID489001]. The format is functional.

Experiment [3] addresses T4, Sentrin-specific protease 8 (Homo sapiens, UniProt Q96LD8).
T4 sequence (Q96LD8 whole entry): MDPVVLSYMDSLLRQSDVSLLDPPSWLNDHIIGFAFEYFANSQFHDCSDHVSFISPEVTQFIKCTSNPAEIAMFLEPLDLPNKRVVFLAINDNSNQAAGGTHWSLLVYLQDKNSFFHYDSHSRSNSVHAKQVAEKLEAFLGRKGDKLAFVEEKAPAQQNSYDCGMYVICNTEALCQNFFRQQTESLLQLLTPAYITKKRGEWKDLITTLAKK
As to the kind of experiment: inhibition of human SENP8 cleavage activity – biochemical, luminescence, SAR follow-up (AID 504501). It counts as functional.

The target of experiment [4] is T5, Sentrin-specific protease 7 (Homo sapiens, UniProt Q9BQF6).
T5 sequence (Q9BQF6 whole entry): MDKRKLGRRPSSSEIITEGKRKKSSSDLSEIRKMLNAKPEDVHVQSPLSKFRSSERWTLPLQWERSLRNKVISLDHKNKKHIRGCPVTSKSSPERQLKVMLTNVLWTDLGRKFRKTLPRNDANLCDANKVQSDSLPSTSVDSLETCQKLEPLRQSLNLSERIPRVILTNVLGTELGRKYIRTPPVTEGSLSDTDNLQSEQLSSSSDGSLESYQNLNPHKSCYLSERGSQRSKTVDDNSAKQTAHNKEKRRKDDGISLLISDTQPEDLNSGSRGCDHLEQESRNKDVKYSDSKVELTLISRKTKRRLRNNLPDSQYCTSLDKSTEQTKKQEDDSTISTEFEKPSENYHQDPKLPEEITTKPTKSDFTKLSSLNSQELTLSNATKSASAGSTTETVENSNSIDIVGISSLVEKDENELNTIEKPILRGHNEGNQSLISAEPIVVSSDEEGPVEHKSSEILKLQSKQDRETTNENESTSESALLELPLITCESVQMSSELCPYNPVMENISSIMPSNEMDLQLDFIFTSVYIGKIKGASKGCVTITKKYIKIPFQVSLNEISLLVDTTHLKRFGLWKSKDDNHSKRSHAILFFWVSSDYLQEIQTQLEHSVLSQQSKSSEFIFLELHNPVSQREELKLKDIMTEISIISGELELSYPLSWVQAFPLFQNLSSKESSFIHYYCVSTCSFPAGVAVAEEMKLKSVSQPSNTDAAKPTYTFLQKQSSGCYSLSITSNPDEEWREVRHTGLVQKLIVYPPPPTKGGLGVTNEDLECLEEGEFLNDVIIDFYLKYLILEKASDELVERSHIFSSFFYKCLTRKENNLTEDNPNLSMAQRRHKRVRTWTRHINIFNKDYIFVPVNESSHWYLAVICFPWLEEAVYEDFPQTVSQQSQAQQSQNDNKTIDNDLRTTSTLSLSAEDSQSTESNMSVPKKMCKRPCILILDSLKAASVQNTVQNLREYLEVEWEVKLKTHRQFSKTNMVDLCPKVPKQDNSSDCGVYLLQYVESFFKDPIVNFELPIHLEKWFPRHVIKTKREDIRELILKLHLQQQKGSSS
As to the kind of experiment: inhibition of human SENP7 cleavage activity – biochemical, luminescence, SAR follow-up (AID 504497). It counts as functional.

Experiment [5] has as its target Melanin-concentrating hormone receptor 1 (Homo sapiens, UniProt Q99705). As to the kind of experiment: Late-stage fluorescence-based counterscreen for antagonists of the G-protein coupled receptor 7 (GPR7): cell-based dose response assay to identify antagonists of the melanin-concentrating hormone receptor 1 (MCHR1) Set 6. It counts as functional.
Experiment [6] concerns the target T6, Neuropeptides B/W receptor type 1 (Homo sapiens, UniProt P48145).
T6 sequence (P48145 whole entry): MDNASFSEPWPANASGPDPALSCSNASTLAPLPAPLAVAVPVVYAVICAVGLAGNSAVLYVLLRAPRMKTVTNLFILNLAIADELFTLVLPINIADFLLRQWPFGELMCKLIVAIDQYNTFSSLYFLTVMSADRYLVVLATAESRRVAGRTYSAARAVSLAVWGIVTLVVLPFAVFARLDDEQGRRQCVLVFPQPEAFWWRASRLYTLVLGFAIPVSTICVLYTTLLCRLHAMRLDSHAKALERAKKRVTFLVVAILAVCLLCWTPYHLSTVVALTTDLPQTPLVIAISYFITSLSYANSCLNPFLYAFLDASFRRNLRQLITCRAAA
Nature of the experiment: human NPBW1 receptor blockade, IC50 – cell-based, fluorescence, dose response, set 6, late-stage follow-up (AID 588583). The format is functional.

Experiment [7] concerns HEK293. Nature of the experiment: optical interference in Abeta FP readout, dose response, artefact control for IDE activator project, biochemical, fluorescence polarization (AID 588442). The format is functional, cell-based. As to conditions: Homo sapiens. (In general: Polarisation of emitted light reports the rotation of a fluorescent probe.)
The target in experiment [8] is T7, Insulin-degrading enzyme (Homo sapiens, UniProt P14735).
T7 sequence (P14735 whole entry): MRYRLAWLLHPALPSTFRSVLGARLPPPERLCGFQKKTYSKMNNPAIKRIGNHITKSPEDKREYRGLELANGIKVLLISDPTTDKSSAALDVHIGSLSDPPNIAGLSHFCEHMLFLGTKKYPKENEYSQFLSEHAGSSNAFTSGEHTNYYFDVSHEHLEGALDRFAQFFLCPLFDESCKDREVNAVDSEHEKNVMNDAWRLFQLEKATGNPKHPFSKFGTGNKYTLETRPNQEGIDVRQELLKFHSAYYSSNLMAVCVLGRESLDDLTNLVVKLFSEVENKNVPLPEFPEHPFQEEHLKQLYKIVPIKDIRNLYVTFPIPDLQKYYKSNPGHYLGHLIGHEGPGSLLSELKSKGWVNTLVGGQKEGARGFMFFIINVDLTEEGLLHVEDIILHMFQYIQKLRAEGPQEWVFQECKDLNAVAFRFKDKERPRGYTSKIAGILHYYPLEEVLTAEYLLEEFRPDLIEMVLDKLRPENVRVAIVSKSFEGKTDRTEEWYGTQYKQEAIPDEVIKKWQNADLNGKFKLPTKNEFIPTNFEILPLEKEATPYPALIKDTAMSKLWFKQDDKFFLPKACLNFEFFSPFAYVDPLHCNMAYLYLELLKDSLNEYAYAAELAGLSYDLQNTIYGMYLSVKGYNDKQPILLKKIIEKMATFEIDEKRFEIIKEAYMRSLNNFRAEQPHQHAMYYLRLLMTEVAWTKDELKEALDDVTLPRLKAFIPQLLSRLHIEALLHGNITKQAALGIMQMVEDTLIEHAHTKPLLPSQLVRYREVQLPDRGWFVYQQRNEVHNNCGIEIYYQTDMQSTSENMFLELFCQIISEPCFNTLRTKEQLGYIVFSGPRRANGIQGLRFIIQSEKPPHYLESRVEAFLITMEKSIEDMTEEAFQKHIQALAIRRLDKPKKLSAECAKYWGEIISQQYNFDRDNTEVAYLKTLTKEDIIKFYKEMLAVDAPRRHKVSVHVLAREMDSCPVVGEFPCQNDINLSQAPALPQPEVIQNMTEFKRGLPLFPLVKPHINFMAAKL
Nature of the experiment: cellular IDE activation of Abeta substrate cleavage – fluorescence polarization, HEK cells, dose response (AID 588439). It counts as functional, cell-based.

Experiment [9] concerns the target T7, Insulin-degrading enzyme. Nature of the experiment: recombinant IDE activation, cell-free – biochemical, fluorescence polarization, counter-screen for IDE activator project, dose response (AID 588681).
Experiment [10] deals with HEK293. Nature of the experiment: membrane integrity loss in HEK cells – cell-based, fluorescence, cytotoxicity control for IDE activator project, dose response (AID 588440).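 Note: cytotoxicity by LDH release measuring loss of membrane integrity.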 The format is functional. Particulars: Homo sapiens.

Sequence of Melanin-concentrating hormone receptor 1 (Q99705 whole entry): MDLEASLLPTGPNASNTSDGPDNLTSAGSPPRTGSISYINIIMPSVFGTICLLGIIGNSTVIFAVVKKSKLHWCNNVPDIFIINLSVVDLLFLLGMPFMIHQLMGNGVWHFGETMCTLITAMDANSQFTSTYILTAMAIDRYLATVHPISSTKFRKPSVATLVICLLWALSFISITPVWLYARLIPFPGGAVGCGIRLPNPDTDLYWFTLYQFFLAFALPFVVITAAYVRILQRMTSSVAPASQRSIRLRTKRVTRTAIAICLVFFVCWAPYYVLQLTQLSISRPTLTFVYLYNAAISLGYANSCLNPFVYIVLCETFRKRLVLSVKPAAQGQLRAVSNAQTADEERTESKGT

By AC50 is commonly meant the concentration at which the activity in the assay is half-maximal. A word on the EC50: it is the concentration at which the effect is half-maximal. Turning to `O=C(C[n+]1cccc(NC(=O)c2ccccc2)c1)c1ccc(NC(=O)c2ccccc2)cc1`, the results for the AC50 on Cytochrome P450 1A2 and at Cytochrome P450 2C9 were 17.8 µM (inconclusive) and 5.62 µM (inconclusive), respectively. Moreover, the EC50 in experiment [1] was 2.76 µM (active).

In the case of `CCN(Cc1ccccc1)S(=O)(=O)c1cc(C(=O)NC(C)C2CC3CCC2C3)ccc1OC` (stereo not given), the concentration for a half-maximal effect (EC50) in [1] was 8.76 µM (active).

By IC50 is commonly meant the concentration that inhibits the measured activity by half. Regarding `N#Cc1c(NC(=O)c2ccc(Cn3cc(Br)cn3)o2)sc2c1CCCCCC2`, the IC50 (in experiment [2]; at Caspase-3; in [3]; in experiment [4]) was > 99 µM (inactive) each time.

On to `Cc1nnc(C(C#N)c2c(Cl)cnn(Cc3cccc4ccccc34)c2=O)o1` (stereo not given), for which the IC50 in experiment [5] and in experiment [6] was 0.435 µM (active) each time.

As for `N#CC(c1cccc(C(F)(F)F)c1)c1c(Cl)cnn(Cc2cccc3ccccc23)c1=O` (stereo not given), the IC50 in experiment [5] and in [6] was 1.53 µM (active) throughout.

As to `CCCCc1ccc2nc(NC(=O)c3csc4ccccc34)sc2c1`, the IC50 (in experiment [2]; at Caspase-3; in experiment [3]; in [4]) was > 99 µM (inactive) in each case.

For `CNC[C@@H]1Oc2ccc(NS(=O)(=O)c3ccc(OC)cc3)cc2CC(=O)N([C@H](C)CO)C[C@@H]1C`, the EC50 in the experiment on HEK293 [7] was > 55.9 µM (inactive); at Insulin-degrading enzyme [8], > 54.7 µM (inactive); on Insulin-degrading enzyme [9] it was > 54.7 µM (inactive). The IC50 in the experiment with HEK293 [10] was > 89.2 µM (inactive).
